Source: patent publication US10072003B2, “Tetrahydronaphthyridine derivatives as mGluR2-negative allosteric modulators, compositions, and their use” (Merck Sharp & Dohme Corp., priority 2014, dated 2018)

Each molecule was assayed against recombinant human mGluR2 (Homo sapiens (Human), UniProt Q14416) (assay: FLIPR Ca2+ mobilization antagonist assay in CHO dhfr- cells expressing human mGluR2 and Gα16). Conditions: antagonist response after addition of 2,500 nM glutamate, Fluo-4 AM, FLIPR384.
Type: cell-based
Protocol: Antagonist constants are determined as follows. The compounds of the invention were tested in a fluorescence laser imaging plate reader based assay. This assay is a common functional assay to monitor Ca2+ mobilization in whole cells expressing recombinant receptor coupled with a promiscuous G-protein. CHO dhfr-cells stably expressing recombinant human mGluR2 and Gα16 loaded with Fluo-4 AM (Invitrogen, Carlsbad Calif.) were treated with various concentrations of antagonists of compounds and the Ca2+ response was monitored on a FLIPR384 (Molecular Devices, Sunnydale Calif.) for agonist activity. Then 2,500 nM glutamate was added and the antagonist response was monitored. The maximum calcium response at each concentration of compound for agonist or antagonist were plotted as dose responses and the curves were fitted with a four parameter logistic equation giving IC50 and Hill coefficient using the iterative non linear curve fitting software ADA (Merck & Co). Data in the following table represent activities in the antagonist assay.

Sequence of recombinant human mGluR2 (Q14416 19-872): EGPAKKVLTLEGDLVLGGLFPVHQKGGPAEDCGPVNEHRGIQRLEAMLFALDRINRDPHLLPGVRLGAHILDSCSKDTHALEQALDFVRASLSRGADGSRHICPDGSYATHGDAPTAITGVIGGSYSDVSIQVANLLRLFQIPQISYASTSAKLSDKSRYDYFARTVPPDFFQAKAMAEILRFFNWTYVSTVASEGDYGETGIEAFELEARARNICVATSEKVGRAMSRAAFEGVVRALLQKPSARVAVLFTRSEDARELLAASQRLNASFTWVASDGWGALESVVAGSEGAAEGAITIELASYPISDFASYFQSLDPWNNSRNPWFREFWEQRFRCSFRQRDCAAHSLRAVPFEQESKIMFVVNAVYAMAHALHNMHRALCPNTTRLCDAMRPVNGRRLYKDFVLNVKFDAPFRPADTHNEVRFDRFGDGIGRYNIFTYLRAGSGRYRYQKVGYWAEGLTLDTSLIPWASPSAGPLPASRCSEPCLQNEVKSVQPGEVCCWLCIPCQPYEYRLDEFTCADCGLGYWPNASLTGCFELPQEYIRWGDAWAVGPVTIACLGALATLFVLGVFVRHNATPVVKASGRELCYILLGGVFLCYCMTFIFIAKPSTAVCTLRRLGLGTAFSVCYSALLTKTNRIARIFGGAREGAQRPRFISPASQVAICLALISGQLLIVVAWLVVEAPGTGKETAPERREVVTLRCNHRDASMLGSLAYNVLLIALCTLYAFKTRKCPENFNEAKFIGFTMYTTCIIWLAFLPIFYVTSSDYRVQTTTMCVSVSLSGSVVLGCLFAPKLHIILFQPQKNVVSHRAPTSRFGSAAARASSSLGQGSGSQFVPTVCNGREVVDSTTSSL

| IC50 [nM] | SMILES |
| --- | --- |
| 9.6 | COc1cc(C(N2CCc3c(-c4cnn(C)c4)cc(C(N)=O)nc3C2)C(F)(F)F)ccn1 (racemic) [Example 3-2A, (S) and (R)-4-(1-methyl-1H-pyrazol-4-yl)-7-(2,2,2-trifluoro-1-(2-methoxypyridin-4-yl)ethyl)-5,6,7,8-tetrahydro-1,7-naphthyridine-2-carboxamide] |
| 11.4 | COc1cc(C(N2CCc3c(-c4cnn(C)c4)cc(C(N)=O)nc3C2)C(F)(F)F)ccn1 (racemic) [Example 3-2B, (S) and (R)-4-(1-methyl-1H-pyrazol-4-yl)-7-(2,2,2-trifluoro-1-(2-methoxypyridin-4-yl)ethyl)-5,6,7,8-tetrahydro-1,7-naphthyridine-2-carboxamide] |
| 51.2 | COc1cc(C(N2CCc3c(C4=CCC(C)CC4)cc(C(N)=O)nc3C2)C(F)(F)F)ccn1 (racemic) [Example 4-3A, 4-((S) and (R)-4-methylcyclohex-1-en-1-yl)-7-((S) and (R)-2,2,2-trifluoro-1-(2-methoxypyridin-4-yl)ethyl)-5,6,7,8-tetrahydro-1,7-naphthyridine-2-carboxamide] |
| 86.6 | COc1cc(C(N2CCc3c(C4=CCC(C)CC4)cc(C(N)=O)nc3C2)C(F)(F)F)ccn1 (racemic) [Example 4-3B, 4-((S) and (R)-4-methylcyclohex-1-en-1-yl)-7-((S) and (R)-2,2,2-trifluoro-1-(2-methoxypyridin-4-yl)ethyl)-5,6,7,8-tetrahydro-1,7-naphthyridine-2-carboxamide] |
| 18.5 | NC(=O)c1cc(-c2ccc(F)cc2F)c2c(n1)CN(CC(O)c1ccccc1)CC2 (racemic) [Example 8-1A, (S) and (R)-4-(2,4-difluorophenyl)-7-(2-hydroxy-2-phenylethyl)-5,6,7,8-tetrahydro-1,7-naphthyridine-2-carboxamide] |
| 12.7 | NC(=O)c1cc(-c2ccc(F)cc2F)c2c(n1)CN(CC(O)c1ccccc1)CC2 (racemic) [Example 8-1B, (S) and (R)-4-(2,4-difluorophenyl)-7-(2-hydroxy-2-phenylethyl)-5,6,7,8-tetrahydro-1,7-naphthyridine-2-carboxamide] |
| 9.9 | NC(=O)c1cc(-c2ccc(F)cc2F)c2c(n1)CN(C(CO)c1ccccc1)CC2 (racemic) [Example 8-2A, (S) and (R)-4-(2,4-difluorophenyl)-7-(2-hydroxy-1-phenylethyl)-5,6,7,8-tetrahydro-1,7-naphthyridine-2-carboxamide] |
| 11.5 | NC(=O)c1cc(-c2ccc(F)cc2F)c2c(n1)CN(C(CO)c1ccccc1)CC2 (racemic) [Example 8-2B, (S) and (R)-4-(2,4-difluorophenyl)-7-(2-hydroxy-1-phenylethyl)-5,6,7,8-tetrahydro-1,7-naphthyridine-2-carboxamide] |

The next lines start with the molecule.

| SMILES | IC50 [nM] |
| --- | --- |
| CC1(C)CC(CN2CCc3c(-c4ccc(F)cc4F)cc(C(N)=O)nc3C2(C)C)CCO1 (racemic) [Example 1-23A, (R) and (S)-4-(2,4-difluorophenyl)-7-((2,2-dimethyltetrahydro-2H-pyran-4-yl)methyl)-8,8-dimethyl-5,6,7,8-tetrahydro-1,7-naphthyridine-2-carboxamide] | 14.7 |
| CC1(C)CC(CN2CCc3c(-c4ccc(F)cc4F)cc(C(N)=O)nc3C2(C)C)CCO1 (racemic) [Example 1-23B, (R) and (S)-4-(2,4-difluorophenyl)-7-((2,2-dimethyltetrahydro-2H-pyran-4-yl)methyl)-8,8-dimethyl-5,6,7,8-tetrahydro-1,7-naphthyridine-2-carboxamide] | 28.5 |
| NC(=O)c1cc(-c2ccc(F)cc2)c2c(n1)CN(C(c1cccnc1)C(F)(F)F)CC2 (racemic) [Example 3-1A, (S) and (R)-4-(4-fluorophenyl)-7-(2,2,2-trifluoro-1-(pyridin-3-yl)ethyl)-5,6,7,8-tetrahydro-1,7-naphthyridine-2-carboxamide] | 21.2 |
| NC(=O)c1cc(-c2ccc(F)cc2)c2c(n1)CN(C(c1cccnc1)C(F)(F)F)CC2 (racemic) [Example 3-1B, (S) and (R)-4-(4-fluorophenyl)-7-(2,2,2-trifluoro-1-(pyridin-3-yl)ethyl)-5,6,7,8-tetrahydro-1,7-naphthyridine-2-carboxamide] | 22.3 |
| CC1(C)CC(CN2CCc3c(-c4ccc(Cl)cc4F)cc(C(N)=O)nc3C2)CCO1 (single isomer, unassigned) [Example 1-5A, (R) or (S)-4-(4-chloro-2-fluorophenyl)-7-((2,2-dimethyltetrahydro-2H-pyran-4-yl)methyl)-5,6,7,8-tetrahydro-1,7-naphthyridine-2-carboxamide] | 5.6 |
| CC1(C)CC(CN2CCc3c(-c4ccc(Cl)cc4F)cc(C(N)=O)nc3C2)CCO1 (single isomer, unassigned) [Example 1-5B, (S) or (R)-4-(4-chloro-2-fluorophenyl)-7-((2,2-dimethyltetrahydro-2H-pyran-4-yl)methyl)-5,6,7,8-tetrahydro-1,7-naphthyridine-2-carboxamide] | 7.5 |
| CC1(C)CC(CN2CCc3c(-c4ccc(F)cc4F)cc(C(N)=O)nc3C2)CCO1 (single isomer, unassigned) [Example 1-11A, (R) or (S)-4-(2,4-difluorophenyl)-7-[(2,2-dimethyltetrahydro-2H-pyran-4-yl)methyl]-5,6,7,8-tetrahydro-1,7-naphthyridine-2-carboxamide] | 30.1 |
| CC1(C)CC(CN2CCc3c(-c4ccc(F)cc4F)cc(C(N)=O)nc3C2)CCO1 (single isomer, unassigned) [Example 1-11B, (S) or (R)-4-(2,4-difluorophenyl)-7-[(2,2-dimethyltetrahydro-2H-pyran-4-yl)methyl]-5,6,7,8-tetrahydro-1,7-naphthyridine-2-carboxamide] | 45.2 |
| NC(=O)c1cc(-c2ccc(F)cc2F)c2c(n1)CN(CC1CCOC(C3CCC3)C1)CC2 (single isomer, unassigned) [Example 1-14, 7-(((2S,4R) or (2R,4S)-2-cyclobutyltetrahydro-2H-pyran-4-yl)methyl)-4-(2,4-difluorophenyl)-5,6,7,8-tetrahydro-1,7-naphthyridine-2-carboxamide] | 40.3 |
| CC1c2nc(C(N)=O)cc(-c3ccc(F)cc3F)c2CCN1Cc1ccnn1C(C)C (single isomer, unassigned) [Example 1-15A, (S) or (R)-4-(2,4-difluorophenyl)-8-methyl-7-{[1-(1-methylethyl)-1H-pyrazol-5-yl]methyl}-5,6,7,8-tetrahydro-1,7-naphthyridine-2-carboxamide] | 5.8 |
| CC1c2nc(C(N)=O)cc(-c3ccc(F)cc3F)c2CCN1Cc1ccnn1C(C)C (single isomer, unassigned) [Example 1-15B, (R) or (S)-4-(2,4-difluorophenyl)-8-methyl-7-{[1-(1-methylethyl)-1H-pyrazol-5-yl]methyl}-5,6,7,8-tetrahydro-1,7-naphthyridine-2-carboxamide] | 5.3 |
| CC1c2nc(C(N)=O)cc(-c3ccc(F)cc3F)c2CCN1CC1CCOC(C)(C)C1 (single isomer, unassigned) [Example 1-18] | 12.3 |
| CC1c2nc(C(N)=O)cc(N3CCCCC3)c2CCN1Cc1ccnn1C(C)C (single isomer, unassigned) [Example 1-19, (S) or (R)-8-methyl-7-{[1-(1-methylethyl)-1H-pyrazol-5-yl]methyl}-4-piperidin-1-yl-5,6,7,8-tetrahydro-1,7-naphthyridine-2-carboxamide] | 13.2 |
